Tested on: MIA PaCa-2
Test: Comet assay of cellular DNA damage
Type: cell-based, human
Details: MIA PaCa-2, 48 h incubation, varying concentration
Experimental: Complexes 2, 4, and 7 were chosen due to their range in cytotoxicity, where complex 2 is moderately active and complexes 4 and 7 have the highest activities. Their ability to induce single-strand breakage (SSB) of DNA with varying concentrations of compound was studied after incubation with MIA PaCa-2 cells for 48 h. After harvesting the cells, quantification of the levels of SSB of DNA were assessed by using the alkaline comet assay.
Samples were then taken up in Optima high purity nitric acid, diluted to 10 mL with 1mL rhodium internal standard and 9 mL 18.2 Ultrapure water. The elemental contents of the samples were determined using ICP-MS-QQQ Thermo TQ spectrometer. Measurement of iron mass 56 and ruthenium isotope mass 100 was conducted by comparing solutions of known concentration and intensities. A series of standard calibration curves allows the concentration of each element to be determined. […]
The media -free wells were then trypsinized (1 mL) for 3 -5 minutes and then neutralized with high glucose DMEM (1 mL), these were all added to the centrifuge t ube and centrifuged at 1500 rpm for 3 minutes. […] Staining solution (150 mL) was added to each slide and the Comets analysed using Comet assay III software. A minimum of 50 different comets were scored and the computer outputs an average on head and tail intensities and tail moments. […]

For [NH2][Pt]([NH2])([Cl])[Cl] [CDDP, cisplatin, reference compound], the “single-strand breakage (SSB) of DNA” value was “dose-dependent SSB similar to that of complex 4”.

From publication PMC10428205, “Cytotoxicity of Ruthenium(II) Arene Complexes Containing Functionalized Ferrocenyl β-Diketonate Ligands” (Organometallics, 2023)
